Measured values taken from patent publication US12590066B2, “Fused-heterocyclyl-carbonohydrazonoyl dicyanide compounds and use thereof” (KOREA INSTITUTE OF SCIENCE AND TECHNOLOGY, priority 2020, dated 2026).

What was measured:
[1] = Liver microsome stability; type: in vitro ADME; conditions: 1 μM compound, 37° C., 30 minutes, NADPH; for Human (%) amount of substrate remaining after the reaction: human liver microsomes 0.25 mg/mL; for Mouse (%) amount of substrate remaining after the reaction: mouse liver microsomes 0.25 mg/mL; for Rat (%) amount of substrate remaining after the reaction: rat liver microsomes 0.25 mg/mL
Summary of the method: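 Human, dog, rat and mouse liver microsomes (0.25 mg/mL) with 1 μM compound in 0.1 M phosphate buffer pH 7.4, preincubated 5 min at 37° C, then incubated 30 min at 37° C with NADPH-generating system. Reaction stopped with acetonitrile plus internal standard; remaining parent quantified by LC-MS/MS.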

[2] = molecular target: T1, tau protein (Homo sapiens, UniProt P10636); experiment: Tau-BiFC cell model, inhibition of Forskolin-induced tau protein aggregation; type: cell-based; conditions: Forskolin 30 μM, 48 hours; for Tau BiFC in cells Response (% @10 μM): 10 μM compound, Forskolin-only group = 100% tau protein-aggregated state; for IC50: tau-BiFC cells
T1 construct: BiFC fluorescent-protein fragments (type and halves not specified); expressed in transfected cells
Summary of the method: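 Tau-BiFC cells co-treated 48 h with 30 μM forskolin and compounds (1, 3, 10 μM screen; 0.01–30 μM dose-response). BiFC fluorescence normalized to forskolin-only (100% aggregation) minus untreated gives aggregation inhibition and IC50; viability as Hoechst-stained nuclei count relative to forskolin-only.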

[3] = molecular target: T2, CYP2C19 (Homo sapiens, UniProt P33261); experiment: Inhibitory effect on CYP coenzyme activity, human liver microsomes; type: in vitro ADME; conditions: 10 μM compound, human liver microsomes 0.25 mg/mL, substrate S-mephenytoin, 15 minutes
T2 construct: human liver microsomes (0.25 mg/mL); from tissue; host or cells: human liver microsomes
Summary of the method: (§1)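 Activity (% of vehicle control) from LC-MS/MS MRM quantitation of substrate metabolites. HLM 0.25 mg/mL, pH 7.4 phosphate, cocktail of phenacetin 50 μM, diclofenac 10 μM, S-mephenytoin 100 μM, dextromethorphan 5 μM, midazolam 2.5 μM; test compound 10 μM; 37 °C, 5 min preincubation plus 15 min with NADPH system.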

[4] = molecular target: T3, CYP2D6 (Homo sapiens, UniProt P10635); experiment: as above; type: in vitro ADME; conditions: 10 μM compound, human liver microsomes 0.25 mg/mL, substrate dextromethorphan, 15 minutes
T3 construct: human liver microsomes (0.25 mg/mL); from tissue; host or cells: human liver microsomes
Summary of the method: as §1

[5] = molecular target: T4, CYP2C9 (Homo sapiens, UniProt P11712); experiment: as above; type: in vitro ADME; conditions: 10 μM compound, human liver microsomes 0.25 mg/mL, substrate diclofenac, 15 minutes
T4 construct: human liver microsomes (0.25 mg/mL); from tissue; host or cells: human liver microsomes
Summary of the method: as §1

[6] = molecular target: T5, CYP3A4 (Homo sapiens, UniProt P08684); experiment: as above; type: in vitro ADME; conditions: 10 μM compound, human liver microsomes 0.25 mg/mL, substrate midazolam, 15 minutes
T5 construct: human liver microsomes (0.25 mg/mL); from tissue; host or cells: human liver microsomes
Summary of the method: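 Human liver microsomes (0.25 mg/mL) in 0.1 M phosphate pH 7.4 were preincubated 5 min at 37 °C with a substrate cocktail (50 μM phenacetin, 10 μM diclofenac, 100 μM S-mephenytoin, 5 μM dextromethorphan, 2.5 μM midazolam) and 10 μM compound, then run 15 min with NADPH-generating system. Metabolites quantified by LC-MS/MS (MRM); activity expressed as % of untreated control.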

T4 sequence (P11712 whole entry): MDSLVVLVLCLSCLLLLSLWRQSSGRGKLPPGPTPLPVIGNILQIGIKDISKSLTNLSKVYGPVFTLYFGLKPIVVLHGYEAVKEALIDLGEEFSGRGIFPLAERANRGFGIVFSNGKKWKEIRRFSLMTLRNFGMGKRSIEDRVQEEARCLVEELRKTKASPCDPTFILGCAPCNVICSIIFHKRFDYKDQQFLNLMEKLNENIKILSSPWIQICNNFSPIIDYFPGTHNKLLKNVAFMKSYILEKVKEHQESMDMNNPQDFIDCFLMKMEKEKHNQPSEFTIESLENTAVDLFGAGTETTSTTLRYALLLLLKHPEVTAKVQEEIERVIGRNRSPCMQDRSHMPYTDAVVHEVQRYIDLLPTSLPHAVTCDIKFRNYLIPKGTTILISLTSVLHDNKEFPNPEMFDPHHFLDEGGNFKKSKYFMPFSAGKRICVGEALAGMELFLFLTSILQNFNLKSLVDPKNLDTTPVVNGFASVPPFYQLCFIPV
T1 sequence (P10636 1-441 isoform P10636-8): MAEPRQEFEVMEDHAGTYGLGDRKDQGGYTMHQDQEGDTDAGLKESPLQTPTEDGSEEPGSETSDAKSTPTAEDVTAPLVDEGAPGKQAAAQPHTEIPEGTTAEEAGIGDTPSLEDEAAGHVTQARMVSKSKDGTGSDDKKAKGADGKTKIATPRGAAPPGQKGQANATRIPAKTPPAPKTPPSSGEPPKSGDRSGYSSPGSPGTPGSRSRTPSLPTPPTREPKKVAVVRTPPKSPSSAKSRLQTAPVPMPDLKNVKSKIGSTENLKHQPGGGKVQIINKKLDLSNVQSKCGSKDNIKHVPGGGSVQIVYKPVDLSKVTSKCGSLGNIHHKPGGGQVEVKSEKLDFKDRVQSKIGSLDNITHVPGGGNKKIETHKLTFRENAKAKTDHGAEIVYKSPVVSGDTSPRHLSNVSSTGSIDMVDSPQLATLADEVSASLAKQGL
T5 sequence (P08684 whole entry): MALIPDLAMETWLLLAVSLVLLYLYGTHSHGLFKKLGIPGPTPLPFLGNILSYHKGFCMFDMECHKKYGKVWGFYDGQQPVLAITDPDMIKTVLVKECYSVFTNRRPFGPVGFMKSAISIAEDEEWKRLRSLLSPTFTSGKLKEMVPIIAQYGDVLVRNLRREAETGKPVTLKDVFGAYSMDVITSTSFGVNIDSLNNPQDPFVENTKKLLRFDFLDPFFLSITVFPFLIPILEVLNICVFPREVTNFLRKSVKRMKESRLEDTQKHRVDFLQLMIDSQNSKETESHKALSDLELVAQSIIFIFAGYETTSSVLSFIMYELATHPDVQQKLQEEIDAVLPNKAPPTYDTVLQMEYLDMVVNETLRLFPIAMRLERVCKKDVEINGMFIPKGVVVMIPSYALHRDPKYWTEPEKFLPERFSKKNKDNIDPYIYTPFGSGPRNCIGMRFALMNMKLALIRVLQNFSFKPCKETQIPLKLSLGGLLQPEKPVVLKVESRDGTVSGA
T2 sequence (P33261 whole entry): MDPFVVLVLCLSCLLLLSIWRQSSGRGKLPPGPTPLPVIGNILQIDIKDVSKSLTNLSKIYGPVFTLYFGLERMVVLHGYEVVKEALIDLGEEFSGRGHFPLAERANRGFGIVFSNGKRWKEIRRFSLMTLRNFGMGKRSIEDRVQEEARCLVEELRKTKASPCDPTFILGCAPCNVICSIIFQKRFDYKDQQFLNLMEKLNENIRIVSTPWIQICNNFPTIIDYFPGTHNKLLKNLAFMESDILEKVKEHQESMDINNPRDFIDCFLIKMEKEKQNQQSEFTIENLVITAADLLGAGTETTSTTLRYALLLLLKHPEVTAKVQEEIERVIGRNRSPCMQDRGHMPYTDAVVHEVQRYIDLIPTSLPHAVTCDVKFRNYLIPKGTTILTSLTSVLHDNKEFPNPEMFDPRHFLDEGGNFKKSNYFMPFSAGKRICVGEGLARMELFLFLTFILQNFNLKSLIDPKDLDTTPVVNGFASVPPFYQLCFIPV
T3 sequence (P10635 whole entry): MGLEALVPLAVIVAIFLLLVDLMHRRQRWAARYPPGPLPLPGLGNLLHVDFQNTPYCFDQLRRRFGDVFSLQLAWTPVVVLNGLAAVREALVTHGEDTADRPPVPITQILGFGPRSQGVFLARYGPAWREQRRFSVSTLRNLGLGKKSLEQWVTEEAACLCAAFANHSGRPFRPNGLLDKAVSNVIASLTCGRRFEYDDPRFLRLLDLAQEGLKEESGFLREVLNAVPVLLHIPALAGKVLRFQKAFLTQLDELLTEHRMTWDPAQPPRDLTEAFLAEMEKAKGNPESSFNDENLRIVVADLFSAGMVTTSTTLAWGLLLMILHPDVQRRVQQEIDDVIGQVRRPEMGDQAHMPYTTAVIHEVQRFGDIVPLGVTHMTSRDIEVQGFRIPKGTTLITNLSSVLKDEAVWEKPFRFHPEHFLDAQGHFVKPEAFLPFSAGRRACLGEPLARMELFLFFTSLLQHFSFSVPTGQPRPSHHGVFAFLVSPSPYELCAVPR

Row | SMILES | Human (%) amount of substrate remaining after the reaction [1] [%] | Mouse (%) amount of substrate remaining after the reaction [1] [%] | Rat (%) amount of substrate remaining after the reaction [1] [%] | Tau BiFC in cells Response (% @10 μM) [2] [%] | IC50 [2] [µM] | CYP2C19 coenzyme activity (%) with respect to control group not treated [3] [%] | CYP2D6 coenzyme activity (%) with respect to control group not treated [4] [%] | CYP2C9 coenzyme activity (%) with respect to control group not treated [5] [%] | CYP3A4 coenzyme activity (%) with respect to control group not treated [6] [%]
1 | CC(C)n1c(=O)n(C(F)F)c2cc(NN=C(C#N)C#N)ccc21 [Compound 43, (3-(difluoromethyl)-1-isopropyl-2-oxo-2,3-dihydro-1H-benzo[d]imidazol-5-yl)carbonohydrazonoyl dicyanide] | 81.5 | 58.6 | 86.2 | −49 | 0.01 | 60.2 | 82.2 | 14.1 | 72.6
2 | CCn1c(=O)n(C)c2cc(NN=C(C#N)C#N)cnc21 [Compound 48, (3-ethyl-1-methyl-2-oxo-2,3-dihydro-1H-imidazo[4,5-b]pyridin-6-yl)carbonohydrazonoyl dicyanide] | 96.7 | >100 | 96.3 | −18 | 0.06 | >100 | >100 | >100 | >100
3 | CC(C)n1c(=O)n(C2CC2)c2ncc(NN=C(C#N)C#N)cc21 [Compound 53, (3-cyclopropyl-1-isopropyl-2-oxo-2,3-dihydro-1H-imidazo[4,5-b]pyridin-6-yl)carbonohydrazonoyl dicyanide] | 84.6 | 83.5 | 82.1 | −39 | 0.16 | >100 | >100 | 75.3 | 97.8
4 | CCn1c(=O)n(C(C)C)c2ncc(NN=C(C#N)C#N)cc21 [Compound 55, (1-ethyl-3-isopropyl-2-oxo-2,3-dihydro-1H-imidazo[4,5-b]pyridin-6-yl)carbonohydrazonoyl dicyanide] | 85.5 | 87.7 | 91.8 | −32 | 0.11 | 73.1 | 85.8 | 38.9 | 78
